Experimental data: patent US20040121994A1, “Novel amides that activate soluble guanylate cyclase” (priority 2002, published 2004)

Target: T1, soluble guanylate cyclase (sGC), α1 and β1 subunits of guanylate cyclase expressed in Sf9 cells (Homo sapiens, UniProt Q02108+Q02153)
T1 construct: made in house; host or cells: Sf9 insect cells (baculovirus co-infection)
T1 sequence (Q02108 1-690): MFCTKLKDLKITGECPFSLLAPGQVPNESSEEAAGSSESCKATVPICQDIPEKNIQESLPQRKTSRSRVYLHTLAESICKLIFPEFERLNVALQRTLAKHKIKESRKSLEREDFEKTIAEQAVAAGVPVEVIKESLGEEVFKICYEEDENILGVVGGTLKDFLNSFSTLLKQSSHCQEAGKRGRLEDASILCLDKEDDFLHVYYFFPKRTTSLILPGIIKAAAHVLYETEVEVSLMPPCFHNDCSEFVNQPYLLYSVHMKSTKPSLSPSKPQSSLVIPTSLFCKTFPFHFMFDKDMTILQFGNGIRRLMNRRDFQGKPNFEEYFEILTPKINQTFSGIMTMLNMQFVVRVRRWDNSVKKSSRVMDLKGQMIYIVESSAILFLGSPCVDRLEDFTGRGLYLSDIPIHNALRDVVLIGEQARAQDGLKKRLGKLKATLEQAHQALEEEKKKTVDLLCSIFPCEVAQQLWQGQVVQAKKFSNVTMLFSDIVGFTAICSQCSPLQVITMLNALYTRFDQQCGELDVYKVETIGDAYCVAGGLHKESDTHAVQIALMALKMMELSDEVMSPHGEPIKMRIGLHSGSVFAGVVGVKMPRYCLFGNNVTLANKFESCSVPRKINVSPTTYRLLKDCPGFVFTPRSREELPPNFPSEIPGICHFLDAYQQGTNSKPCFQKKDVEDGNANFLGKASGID
T1 sequence (Q02153 1-619): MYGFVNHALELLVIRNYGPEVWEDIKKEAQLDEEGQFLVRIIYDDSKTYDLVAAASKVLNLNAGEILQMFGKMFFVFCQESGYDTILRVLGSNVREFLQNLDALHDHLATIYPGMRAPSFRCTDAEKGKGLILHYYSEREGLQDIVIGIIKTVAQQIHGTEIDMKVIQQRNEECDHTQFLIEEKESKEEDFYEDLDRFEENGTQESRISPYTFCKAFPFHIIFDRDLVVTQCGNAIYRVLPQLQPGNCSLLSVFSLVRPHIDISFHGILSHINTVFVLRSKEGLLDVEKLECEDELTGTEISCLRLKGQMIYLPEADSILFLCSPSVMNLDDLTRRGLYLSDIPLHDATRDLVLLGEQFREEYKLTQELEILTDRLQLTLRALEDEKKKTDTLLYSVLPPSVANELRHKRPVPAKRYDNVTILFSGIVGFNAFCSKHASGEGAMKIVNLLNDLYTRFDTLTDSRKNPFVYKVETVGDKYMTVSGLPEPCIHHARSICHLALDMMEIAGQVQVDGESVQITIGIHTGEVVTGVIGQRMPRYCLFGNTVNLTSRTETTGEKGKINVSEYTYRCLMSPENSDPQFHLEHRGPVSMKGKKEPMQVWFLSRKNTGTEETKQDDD
Assay: Guanylate cyclase assay (formation of cyclic GMP from GTP)
Assay type: biochemical
Settings: for Mean activation at 100 μM: (activity of compound at 100 μM with 1 μM SNP)−(activity of compound at 100 μM)/(activity of SNP at 1 μM)−(basal activity of sGC); for Mean efficacy of compound combined with 1 μM of SNP, [%]: compound at 100 μM with 1 μM sodium nitro prusside (SNP); for Emax at 100 µM: read-out: Mean basal efficacy of compound alone at 100 μM, [%]
Method: Sf9 cells were cultured in Sf-90011 medium supplemented with 10% (v/v) fetal calf serum at 28° C. to give a count of 6×10^5 cells/ml. The cells were then infected with a mixture of the virus stocks for the α1 and β1 subunits of guanylate cyclase at a multiplicity of infection of 0.1 pfu/cell. The cells were harvested 72 hours after infection and were pelleted by centrifugation. The resulting cell pellets were homogenized with Polytron homogenizer in 3 volumes of 20 mM Tris-HCl (pH 7.6) containing 1 mM EDTA, 5 mM dithiothreitol, 90 mM NaCl, 10% glycerol, and protease inhibitors mix (Roche Molecular Biochemicals). The homogenate was centrifuged at 50,000×g for 60 minutes and the supernatant was aliquotted and stored at −80° C.
Compounds of the present invention were dissolved in DMSO to make 100 mM and saved as stocks at −20° C. When compounds were tested, prepared 10-fold concentrated solutions with 10% DMSO. Then added 10 μl of 10-fold concentrated compound solutions to the reaction mixture of total 100 μl.
Guanylate cyclase activity was measured by the formation of cyclic GMP from GTP in a total volume of 100 μl. Guanylate cyclase-expressed Sf9 cell high-speed supernatant was used as an enzyme source for the assay. The reaction mixture containing 0.1 μl enzyme (Sf9 high-speed sup), compound solution, 50 mM Tris-HCl (pH 7.6), 4 mM MgCl2, 0.5 mM IBMX, 15 mM creatine phosphate, 20 μg creatine phosphokinase, 0.1% BSA and 1 mM GTP was incubated at 37° C. for 15 minutes. After the reaction, 0.9 ml of 50 mM sodium acetate buffer (pH 5.8) was added followed by boiling for 3 minutes to stop the reaction. The solution was centrifuged at 3000 rpm for 15 minutes at room temperature and cyclic GMP in 20 μl of the resulting supernatant was measured according to the protocol of Amersham cyclic GMP enzymeimmunoassay system (purchased from Sigma, catalogue number RPN 226).
Compounds of the present invention were tested at 100 μM with and without 1 μM sodium nitro prusside (SNP). 1-Benzyl-3-hydroxymethyl-2-furylindazole (YC-1) was included as a standard for each assay. The data was normalized with the activity of 100 μM YC-1 (without SNP) as 100%. Mean basal efficacy, in Table 1, was expressed as a percentage of 100 μM YC-1 (without SNP).
The mean activation, in Table 1, was calculated based on the formula: (activity of compound of the present invention at 100 μM with 1 μM SNP)−(activity of compound of the present invention at 100 μM)/(activity of SNP at 1 μM)−(basal activity of sGC).

[1] = normalized with the activity of 100 μM YC-1 (without SNP) as 100%
[2] = compound at 100 μM without SNP, normalized with the activity of 100 μM YC-1 (without SNP) as 100%

Compound | Mean activation at 100 μM | Mean efficacy of compound combined with 1 μM of SNP, [%] [1] | Mean basal efficacy of compound alone at 100 μM, [%] [2] | Emax at 100 µM [2]
2-[1-((2E)-3-{2-[(3-methylbutyl)thio]phenyl}-2-propenoyl)-4-piperidinyl]ethanol [Example 62] | 4.7 | 161% | 136% | 
O=C(CCc1ccccc1Sc1ccc(Cl)cc1)NCCCCO [Example 1, 3-{2-[(4-chlorophenyl)thio]phenyl}-N-(4-hydroxybutyl)propanamide] | 2.4 | 25% |  | 4%
CC(CCCC(C)(C)O)NC(=O)CCc1ccccc1Sc1ccc(Cl)cc1 (stereo not shown) [Example 2, 3-{2-[(4-chlorophenyl)thio]phenyl}-N-(5-hydroxy-1,5-dimethylhexyl)propanamide] | 2.6 | 84% |  | 9%
O=C(CCc1ccccc1Sc1ccc(Cl)cc1)NCCCCCO [Example 3, 3-{2-[(4-chlorophenyl)thio]phenyl}-N-(5-hydroxypentyl)propanamide] | 2.3 | 29% |  | 2%
O=C(CCc1ccccc1Sc1ccc(Cl)cc1)NC1CCC(O)CC1 (stereo not shown) [Example 4, 3-{2-[(4-chlorophenyl)thio]phenyl}-N-(4-hydroxycyclohexyl)propanamide] | 2.6 | 28% |  | 1%
Cc1ccc(Sc2ccccc2CCC(=O)NCCCCO)cc1 [Example 5, N-(4-hydroxybutyl)-3-{2-[(4-methylphenyl)thio]phenyl}propanamide] | 5.1 | 96% |  | 14%
CS(=O)(=O)NCCCCNC(=O)CCc1ccccc1Sc1ccc(Cl)cc1 [Example 6, 3-{2-[(4-chlorophenyl)thio]phenyl}-N-{4-[(methylsulfonyl)amino]butyl}propanamide] | 2.7 | 11% |  | 2%
O=C(CCc1cccc(F)c1Sc1ccc(Cl)cc1)NCCCCO [Example 7, 3-{2-[(4-chlorophenyl)thio]-3-fluorophenyl}-N-(4-hydroxybutyl)propanamide] | 3.8 | 80% |  | 19%
O=C(CCc1cc(F)ccc1Sc1ccc(Cl)cc1)NCCCCO [Example 8, 3-{2-[(4-chlorophenyl)thio]-5-fluorophenyl}-N-(4-hydroxybutyl)propanamide] | 3.1 | 16% |  | 0%
CC(O)CCCNC(=O)CCc1ccccc1Sc1ccc(Cl)cc1 (stereo not shown) [Example 9, 3-{2-[(4-chlorophenyl)thio]phenyl}-N-(4-hydroxypentyl)propanamide] | 4.0 | 22% |  | 4%
CC(CC(=O)N(C)C1CCN(C)CC1)c1ccccc1Sc1ccc(Cl)cc1 (stereo not shown) [Example 10, 3-{2-[(4-chlorophenyl)thio]phenyl}-N-methyl-N-(1-methyl-4-piperidinyl)butanamide] | 1.6 | 7% |  | 0%
CC(CC(=O)NCCc1ccncc1)c1ccccc1Sc1ccc(Cl)cc1 (stereo not shown) [Example 11, 3-{2-[(4-chlorophenyl)thio]phenyl}-N-[2-(4-pyridinyl)ethyl]butanamide] | 2.8 | 6% |  | 1%
CONCCCCNC(=O)CCc1ccccc1Sc1ccc(Cl)cc1 [Example 12, 3-{2-[(4-chlorophenyl)thio]phenyl}-N-[4-(methoxyamino)butyl]propanamide] | 1.5 | 20% |  | 2%
CNCCCCNC(=O)CCc1ccccc1Sc1ccc(Cl)cc1 [Example 13, 3-{2-[(4-chlorophenyl)thio]phenyl}-N-[4-(methylamino)butyl]propanamide] | 2.4 | 25% |  | 4%
CNCCCCCNC(=O)CCc1ccccc1Sc1ccc(Cl)cc1 [Example 14, 3-{2-[(4-chlorophenyl)thio]phenyl}-N-[5-(methylamino)pentyl]propanamide] | 4.4 | 124% |  | 30%
Cc1ccc(Sc2ncccc2/C=C/C(=O)NC2CCC(O)CC2)cc1 (stereo not shown) [Example 15, (2E)-N-(4-hydroxycyclohexyl)-3-{2-[(4-methylphenyl)thio]-3-pyridinyl}acrylamide] | 4.7 | 204% |  | 126%
O=C(/C=C/c1cccnc1Sc1ccc(Cl)cc1)NC1CCC(O)CC1 (stereo not shown) [Example 16, (2E)-3-{2-[(4-chlorophenyl)thio]-3-pyridinyl}-N-(4-hydroxycyclohexyl)acrylamide] | 3.6 | 68% |  | 11%
O=C(/C=C/c1cccnc1Sc1ccc(Cl)cc1Cl)NC1CCC(O)CC1 (stereo not shown) [Example 17, (2E)-3-{2-[(2,4-dichlorophenyl)thio]-3-pyridinyl}-N-(4-hydroxycyclohexyl)acrylamide] |  | 138% |  | 38%
O=C(/C=C/c1cccnc1Sc1ccc(Br)cc1)NC1CCC(O)CC1 (stereo not shown) [Example 18, (2E)-3-{2-[(4-bromophenyl)thio]-3-pyridinyl}-N-(4-hydroxycyclohexyl)acrylamide] |  | 113% |  | 43%
O=C(/C=C/c1cccnc1Sc1ccccc1)NC1CCC(O)CC1 (stereo not shown) [Example 19, (2E)-N-(4-hydroxycyclohexyl)-3-[2-(phenylthio)-3-pyridinyl]acrylamide] | 4.8 | 120% |  | 37%
